Where two headings read alike, the source gives them in different places.
Experiments:
[1] = target: T1, heme-bound IDO1 (holo-IDO1) (Homo sapiens, UniProt P14902); experiment: UV/Vis detection of heme-bound IDO1 (heme displacement); assay type: binding; conditions: 50 µM; for heme displacement from holo-IDO1 (in words): 37 °C, 3 h, Soret band 404 nm
T1 construct: The GST-tag of IDO1 was removed to obtain untagged full-length IDO1l using PreScission protease; GST (N, cleaved yes); made in house; own inference
T1 sequence (P14902 whole entry): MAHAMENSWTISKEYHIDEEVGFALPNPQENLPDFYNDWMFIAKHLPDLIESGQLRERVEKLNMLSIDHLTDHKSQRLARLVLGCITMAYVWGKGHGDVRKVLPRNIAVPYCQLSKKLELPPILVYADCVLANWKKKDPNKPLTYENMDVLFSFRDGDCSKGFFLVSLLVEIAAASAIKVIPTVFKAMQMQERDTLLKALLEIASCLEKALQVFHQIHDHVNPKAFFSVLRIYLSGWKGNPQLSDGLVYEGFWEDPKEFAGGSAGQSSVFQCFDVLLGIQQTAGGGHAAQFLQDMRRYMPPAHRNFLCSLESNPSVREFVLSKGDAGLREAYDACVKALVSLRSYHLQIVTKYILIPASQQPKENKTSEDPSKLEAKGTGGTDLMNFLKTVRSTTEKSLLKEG
Method: (§1) Incubation at 37 °C for 3 h. Representative data for n = 3. c) Time‐course of heme displacement from IDO1 detected by the absorbance at the Soret peak (404 nm) as a function of time. […] All curves were fit using a one‐site model with N = 1 and defined IDO1 concentration. Left plots show baseline corrected data, while right plots show integrated binding isotherms versus iDegs/IDO1 ratio. IDO1 protein (125 µM) was titrated into the stirred sample cell containing iDegs (25 µM, except for iDeg‐8 at 50 µM). Representative data for n = 3, except for iDeg‐9 (n = 2). g)–i) In vivo activity of iDeg‐6. NSG immunodeficient mice were injected with SKOV‐3 cells. Mice were treated with 18 intraperitoneal injections of iDeg‐6 (30 mg kg^−1) or vehicle. The pharmacological treatment was twice daily. Tumor volume was determined weekly by digital caliper. g) SKOV‐3 tumor growth curves in iDeg‐6‐treated mice (n = 12, green lines) or vehicle‐treated mice (n = 13, gray lines). Statistical analysis was performed by two‐way ANOVA: ****p < 0.001. h) Body weight changes during treatment window (mean values ± range). i) Survival data are shown by Kaplan‐Meier survival analysis. Mantel–Haenszel statistical analysis: p < 0.0001).
Representative data of n=3 biological replicates. c, IDO1 was incubated with compounds (50 µM) or DMSO (control). UV/VIS spectra were acquired at five time points to monitor heme loss over time. Data are representative of two replicates.
The test compounds or DMSO (vehicle control) were incubated with recombinant full-length human IDO1 (rhIDO1; 10 µM) in 50 mM potassium phosphate buffer (pH 6.5) for 3 h at 37 °C. Following incubation, samples were centrifuged at 5,000 × g for 10 minutes. UV/Vis absorption spectra were then recorded from 250 nm to 650 nm in 1 nm increments using UV-transparent microplates (UV-STAR®, Greiner Bio-One, Austria) on a Spark® multimode microplate reader (Tecan, Austria). Absorbance values were analyzed at 404 nm (A404), and were plotted using GraphPad Prism version 9.0 (GraphPad Software, USA).

recombinant human IDO1 = target: T2, recombinant human IDO1 (Homo sapiens, UniProt P14902); experiment: IDO1 enzymatic assay in vitro; assay type: biochemical
T2 construct: The GST-tag of IDO1 was removed to obtain untagged full-length IDO1l using PreScission protease; GST (N, cleaved yes); made in house; own inference
T2 sequence (P14902 whole entry): as above

[2] = target: T3, IDO1 protein in IFN-γ stimulated HeLa cells (Homo sapiens, UniProt P14902); experiment: IDO1 immunostaining (immunofluorescence); assay type: cell-based; conditions: 24 h
T3 construct: endogenous in cells; host or cells: HeLa (DSMZ), IFN-γ stimulated
T3 sequence (P14902 whole entry): as above
Method: Figure 3 Comparison of IDO1 degradation efficiency for selected compounds. a) Detection of IDO1 levels using immunostaining. IFN‐γ stimulated HeLa cells were treated with the compounds for 24 h. IDO1 protein abundance was detected with IDO1 antibody. Data are mean values ± SD, n = 3. b) IDO1 protein levels in BxPC3 cells upon compounds treatment were detected using immunoblotting. BxPC3 cells were treated with IFN‐γ for 24 h prior to washout, followed by addition of compounds. Representative blot and quantified band intensities are shown (mean values ± SD, n = 3). See Figure S11a S12a for the uncropped blots. c) Key functions of hit compounds that influence degradation efficiency. d) Heatmap for IDO degradation efficiency. IDO1 levels were monitored as described in (c). See Table S1 for mean values and Figure S11b for the uncropped blots. e)–g) Dose dependent degradation of IDO1 protein in BxPC3 cells treated with iDeg‐7–9 and detected as described in (c). Representative data of n = 3 except for iDeg‐9 (n = 4). See Figure S12 S13 for the uncropped blots. h) Quantification of IDO1 protein levels from e‐g (mean values ± SD, n = 3 except for iDeg‐9 (n = 4). i) Tabulated inhibition and degradation ability of iDeg‐6–9. ND: not detected. j) Volcano plot of iDeg‐6‐induced changes on the global proteome. SKOV‐3 cells were treated with 10 µM iDeg‐6 or DMSO for 4 h followed by protein extraction, tryptic digest and LC‐MS/MS analysis (n = 4). Plot generated using UMSAP (T 0 = 0.5, S 0 = 0.5).
IFN-γ-stimulated Hela cells (5 ng/mL IFN-γ) were seeded in 96-well plates and incubated for 24 h. Subsequently, IFN-γ was washed out and cells were treated with compounds for additional 24 h. Cells were then washed once with PBS and fixed with 3.7% paraformaldehyde for 10 min at room temperature. Cells were washed three times with ice-cold PBS. […] Images were analyzed by SpectraMax Paradigm microplate reader (Molecular Devices) to extract IDO1 fluorescence intensity as well as the cell count. IDO1 fluorescence intensity was normalized to cell count. […]

[3] = target: IDO1 protein levels in BxPC3 cells (Homo sapiens, UniProt P14902); experiment: IDO1 immunoblotting (degradation); assay type: cell-based; set-up: endogenous in cells; host or cells: BxPC3 (DSMZ), IFN-γ stimulated; conditions: for IDO1 protein level by immunoblotting (in words): IFN-γ 24 h, washout, compounds 24 h; for Max. degradation (%): 24 h incubation, mean ± SD
Sequence of IDO1 protein levels in BxPC3 cells (P14902 whole entry): as above

[4] = tested on: Kyn levels in BxPC3 cells (kynurenine generated by IDO1); experiment: Cellular Kyn assay (automated Kyn screening assay); assay type: cell-based; conditions: IFN-γ, L-Trp and compounds 48 h, mean ± SD, read-out: IC50 (Kyn assay), reduction of kynurenine levels
[5] = target: T4, recombinant full-length human IDO1 (Homo sapiens, UniProt P14902); experiment: Thermal shift assay (nanoDSF); assay type: binding; conditions: 50 µM, 3 h at 37 °C
T4 construct: The GST-tag of IDO1 was removed to obtain untagged full-length IDO1l using PreScission protease; GST (N, cleaved yes); made in house; own inference
T4 sequence (P14902 whole entry): as above
Method: as §1, with “0.0001). […]” for “0.0001).”
The test compounds or DMSO (vehicle control) were incubated with recombinant full-length human IDO1 (rhIDO1; 10 µM) in 50 mM potassium phosphate buffer (pH 6.5) for 3 h at 37 °C. Following incubation, samples were centrifuged at 5,000 × g for 10 minutes, then the protein-compound solutions were loaded into capillaries, and thermal unfolding was assessed using the Prometheus Panta system (NanoTemper® Technologies, Germany). Fluorescence intensities at 330 nm and 350 nm were recorded at temperature increments of 0.115 °C from 20 °C to 90 °C. Melting temperatures (Tm) were automatically calculated using Prometheus NT.48 analysis software. The resulting thermal denaturation curves, with Tm defined as the temperature at the maximum derivative of the unfolding transition, were visualized and analysed using GraphPad Prism version 9.0 (GraphPad Software, USA).

[6] = target: T4, recombinant full-length human IDO1; experiment: Isothermal titration calorimetry (ITC); assay type: binding; conditions: 25 °C
Method: as §1
ITC was performed using the MicroCal PEAQ-ITC system (Malvern) at 25 °C. Recombinant human full-length IDO1 (rhIDO1) was buffer-exchanged into 100 mM phosphate buffer (50 mM KH₂PO₄ and 50 mM K₂HPO₄, pH 6.57) with 1 mM TECP using a 10 K Amicon® Ultra centrifugal filter (Millipore). The buffer exchange was repeated ten times to ensure complete removal of interfering components. The final protein sample was diluted in the same phosphate buffer prior to titration.125 μM protein in 100 mM phosphate buffer was loaded into the syringe, while 25 μM compound (except for iDeg-8, 50 μM) in 100 mM phosphate buffer was loaded to the cell. All samples were adjusted to 25 °C and degassed before loading. Titrations were performed at 25 °C with one injection of 0.4 µL, followed by 18 injections of 2 µL. Experiments were performed with three biological replicates except for iDeg-9 with two biological replicates. Data were analyzed using the MicroCal PEAQ-ITC Analysis software and were plotted using GraphPad Prism 9.0 (GraphPad, USA).

[7] = at 14 µM, pre-incubation 37 °C 45 min, mean ± SD
[8] = pre-incubation 37 °C 45 min, determined if inhibition at 14 µM higher than 50%

| SMILES | heme displacement from holo-IDO1 (in words) [1] | IDO1 activity IC50 [µM] (in vitro assay) (recombinant human IDO1; [8]) | IDO1 staining fluorescence intensity (in words) [2] | IDO1 protein level by immunoblotting (in words) ([3]; BxPC3 cells) | shift in IDO1 melting temperature ΔTm / binding in TSA (in words) [5] | inhibition at 14 µM (recombinant human IDO1; [7]) | Max. degradation (%) ([3]; 10 nM) | Max. degradation (%) ([3]; 100 nM) | IC50 ([4]; Homo sapiens, BXPC-3, 48 h) | further results |
| --- | --- | --- | --- | --- | --- | --- | --- | --- | --- | --- |
| CC(C)(C)c1ccc(S(=O)(=O)N2CC[C@@]3(C2)[C@@H]2C[C@H](C[C@H]3OC(=O)Nc3ccc(I)cc3)C2(C)C)cc1 [compound 22, (1R,2S,3R,5R)-1'-((4-(tert-butyl)phenyl)sulfonyl)-6,6-dimethylspiro[bicyclo[3.1.1]heptane-2,3'-pyrrolidin]-3-yl (4-iodophenyl)carbamate] | displaced heme to a similar extent | – (Inactive: >75% Kyn level observed up to a concentration of 14 µM and no IC50 value obtained) | did not induce IDO1 protein degradation | did not reduce the IDO1 protein level | identical binding in the TSA assay | – | – | – | – | IDO1 activity Inhibition (%) (recombinant human IDO1; [7]): ns (not significant); in vitro IDO1 inhibition (in words) (recombinant human IDO1; up to 14 µM, incubated with IDO1 for 45 min): no activity; IC50 [4]: 490 ± 60 nM |
| C#Cc1ccc(NC(=O)OC[C@]23CN(S(=O)(=O)c4ccc(C(C)(C)C(=O)O)cc4C)C[C@H]2C[C@H]2C[C@@H]3C2(C)C)cc1 [102 (iDeg-9), 2-(4-(((3aS,4R,6R,7aS)-3a-((((4-ethynylphenyl)carbamoyl)oxy)methyl)-5,5-dimethyloctahydro-2H-4,6-methanoisoindol-2-yl)sulfonyl)-3-methylphenyl)-2-methylpropanoic acid] | most efficient heme displacement | – | – | barely affected the IDO1 level | highest ΔT m value | 64 ± 1% | 20 ± 9 (9) % | 21 ± 20 (9) % | 5 nM | time course of heme displacement (in words) ([1]; absorbance at 404 nm over time, compared to iDeg-6 and -8): faster; IC50 (recombinant human IDO1; [8]): 0.089 ± 0.03 µM; -TΔS (ITC) [6]: 15.6 kcal/mol; Kd [6]: 215 nM; ΔG (ITC) [6]: -9.1 kcal/mol; ΔH (ITC) [6]: -24.7 ± 0.3 kcal/mol; Kd ([6]; one-site model): 220 ± 20 nM; Dmax at 0.1 µM ([3]; BXPC-3, @100 nM, BxPC3 cells): 21% |
| Cc1ccc(NC(=O)OC[C@]23CN(S(=O)(=O)c4ccc(C(C)(C)C)cc4)C[C@H]2C[C@H]2C[C@@H]3C2(C)C)cc1 [10 (iDeg-1), ((3aS,4R,6R,7aS)-2-((4-(tert-butyl)phenyl)sulfonyl)-5,5-dimethyloctahydro-3aH-4,6-methanoisoindol-3a-yl)methyl p-tolylcarbamate] | – | – (Inactive: >75% Kyn level observed up to a concentration of 14 µM and no IC50 value obtained) | reduced the fluorescence intensity of the IDO1 staining | modulate IDO1 abundance | – | < 25% | – | – | 830 ± 310 nM | – |
| CC(C)(C)c1ccc(S(=O)(=O)N2C[C@H]3C[C@H]4C[C@H](C4(C)C)[C@@]3(COC(=O)Nc3ccc(I)cc3)C2)cc1 [14 (iDeg-2)] | displaced heme to a similar extent | – (Inactive: >75% Kyn level observed up to a concentration of 14 µM and no IC50 value obtained) | reduced the fluorescence intensity of the IDO1 staining | modulate IDO1 abundance | identical binding in the TSA assay | < 25% | 20 ± 9 (3) % | 37 ± 14 (3) % | 120 ± 20 nM | Degradation Efficiency (%) ([3]; 100 nM, BxPC3 cells, heatmap Fig. 3d): 37% |
